Measured values as given in patent EP0306904A2, “Phosphoric acid diesters and salts thereof” (Senju Pharmaceutical Co., Ltd., priority 1987, dated 1989).

How the values were obtained:
lens = test: Anti-oxidative activity in a model employing UV-induced oxidation of the lens
[1] = tested on: mixture micelles, which were prepared from phospholipid (egg lecithin) and ethanol; test: Anti-oxidative activity: oxidation of mixture micelles (egg lecithin and ethanol) by ferrous-ion/ascorbic acid, thiobarbituric acid readout; assay type: biochemical; conditions: for Rate of inhibition (%): 25 °C, 15 min, ferrous sulfate/sodium ascorbate; for inhibition of oxidation: summary in words of the micelle oxidation results
Experimental: Anti-oxidative activity of the compounds prepared in example 1 and example 4 were determined using, as an index, oxidation of mixture micelles, which were prepared from phospholipid (egg lecithin) and ethanol, by ferrous-ion/ascorbic acid
To a solution of approx. 78 mg of egg lecithin in 2 ml of ethanol was added gradually 5 mM HEPES buffer solution (pH 7.2), under sonication (50 W) and ice-cooling, to make a 100-ml suspension. To 1,000 µ l of the suspension were added 200 µ l of 2.6 x 10⁻⁴ M solution of one of the test compounds in 50 v/v % ethanol, 50 µ l of 5.0 x 10⁻⁵ M sodium ascorbate solution in water and 50 µ l of 2.5 x 10⁻⁶ M ferrous sulfate solution in water. The mixture was placed in a water bath at 25 °C for 15 min for oxidation. Instantly after the reaction, 50 µ l of 0.1 % hydroquinone solution in ethanol was added to stop the reaction. To the mixture were added 200 µ l of 20 w/v % trichloroacetic acid and 2,000 µ l of 50 v/v % acetic acid containing thiobarbituric acid (Merck) at the concentration of 0.35 %, followed by heating for 15 min under reflux at 100 °C. After cooling, absorp tion within the range of 450-600 nm was measured by spectrophotography, within which range increase in absorbance at approx. 530-540 nm was determined. […]

[2] = Final concentration 4.0 x 10⁻⁵ (unit not given; M)
[3] = Final concentration 4.0 x 10⁻⁶ (unit not given; M)

## Cc1c(C)c2c(c(C)c1OP(=O)([O-])OC1=C(O)[C@@H]([C@@H](O)CO)OC1=O)CCC(C)(CCCC(C)CCCC(C)CCCC(C)CCCC(C)C)O2.[K+] (stereo partly drawn) [Example 4, potassium salt of phosphoric acid (L-ascorbic acid-2-0)(2,5,7,8-tetramethyl-2-(4,8,12,16-tetramethylheptadecyl)chromanyl-6) ester]
lens
  inhibition of accumulation of malonedialdehyde: significant inhibition
[1]; [2]
  Rate of inhibition (%): 99.90%
[1]; [3]
  Rate of inhibition (%): 95.22%
[1]
  inhibition of oxidation: nearly complete inhibition of oxidation

## Cc1c(C)c2c(c(C)c1OP(=O)([O-])OC1=C(O)[C@@H]([C@@H](O)CO)OC1=O)CCC(C)(CCCC(C)CCCC(C)C)O2.[K+] (stereo partly drawn) [Example 1, potassium salt of phosphoric acid (L-ascorbic acid-2-0)(2,5,7,8-tetramethyl-2-(4,8-dimethylnonyl)chromanyl-6) ester]
lens
  inhibition of accumulation of malonedialdehyde: significant inhibition
[1]; [2]
  Rate of inhibition (%): 94.44%
[1]; [3]
  Rate of inhibition (%): 89.57%
[1]
  inhibition of oxidation: nearly complete inhibition of oxidation
